We go through 14 molecules from patent US11198713B2, “Agents modulating beta-catenin functions and methods thereof” (FOG PHARMACEUTICALS, INC., priority 2017, dated 2021).

pEC50: −log10 of the molar value. Bounds are passed on as bounds.

The assay deals with T1, full-length beta-catenin (Axin site) (Homo sapiens, UniProt P35222).
T1 construct: 15 nM full-length beta-catenin, 20 nM FITC labeled peptide in buffer
T1 sequence (P35222 1-781): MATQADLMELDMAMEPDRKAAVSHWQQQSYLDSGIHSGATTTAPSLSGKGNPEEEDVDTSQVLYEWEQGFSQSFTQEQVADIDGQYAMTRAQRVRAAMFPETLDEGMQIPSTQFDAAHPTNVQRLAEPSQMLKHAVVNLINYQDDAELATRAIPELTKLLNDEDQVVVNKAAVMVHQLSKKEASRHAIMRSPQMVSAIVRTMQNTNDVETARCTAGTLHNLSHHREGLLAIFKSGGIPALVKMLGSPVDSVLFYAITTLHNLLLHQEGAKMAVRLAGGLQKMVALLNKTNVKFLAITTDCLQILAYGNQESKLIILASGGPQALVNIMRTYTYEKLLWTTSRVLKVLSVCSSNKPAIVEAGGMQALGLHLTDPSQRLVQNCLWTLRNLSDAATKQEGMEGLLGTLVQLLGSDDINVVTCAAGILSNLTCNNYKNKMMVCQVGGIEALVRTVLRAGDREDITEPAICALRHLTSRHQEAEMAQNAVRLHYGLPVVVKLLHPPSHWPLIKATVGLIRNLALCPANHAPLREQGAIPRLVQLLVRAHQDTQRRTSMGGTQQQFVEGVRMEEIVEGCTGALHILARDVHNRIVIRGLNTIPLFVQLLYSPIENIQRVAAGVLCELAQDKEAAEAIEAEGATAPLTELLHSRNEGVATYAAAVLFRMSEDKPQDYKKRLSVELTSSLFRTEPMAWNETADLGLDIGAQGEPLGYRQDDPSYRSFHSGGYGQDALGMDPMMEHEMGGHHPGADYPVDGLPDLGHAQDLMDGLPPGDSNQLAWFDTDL
In words: Competition fluorescence polarization assay (Axin site probe). The class given is binding. The note with it: competition fluorescence polarization, Table 2; read-out: in vitro FP EC50. In short, it runs like this: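 Competition FP: 15 nM full-length β-catenin pre-incubated 5 min with 20 nM FITC-labelled stapled Axin-site peptide, then titrated peptide added (3-fold series from 5 μM) for 15 min in the dark. Buffer 50 mM Tris pH 8.0, 250 mM NaCl, 2% glycerol, 0.5 mM EDTA; duplicate reads.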
On the technique in general: In fluorescence polarisation assays a small probe gives low polarisation when free and higher when bound to something large.
Turning to `CC[C@H](C)[C@@H]1NC(=O)C2(NC(=O)[C@H](CCC(N)=O)NC(=O)[C@@H]3CCCN3C(C)=O)CN(C2)C(=O)OCC=CCCCCC[C@@](C)(C(=O)N[C@@H](Cc2c[nH]cn2)C(=O)N[C@H](C(=O)N[C@@H](CCCNC(=N)N)C(=O)N[C@@H](CCCNC(=N)N)C(=O)N[C@H](C(=O)N[C@@H](Cc2c[nH]c3ccccc23)C(=O)N[C@@H](CCCNC(=N)N)C(N)=O)C(C)C)C(C)C)NC(=O)[C@H](CC(=O)O)NC(=O)[C@H](CC(C)C)NC1=O` (single isomer, unassigned) [FP0728c, Ac-P-Q-MA-I-L-D-S7-H-V-R-R-V-W-R-NH2], the negative logarithm of the EC50 (pEC50) (in general, the negative decadic logarithm of the EC50, by convention in mol/L) was 5.30 to 6.30. Take `CC[C@H](C)[C@@H]1NC(=O)[C@](C)(NC(=O)[C@H](CCC(N)=O)NC(=O)[C@@H]2CCCN2C(C)=O)CCC=CCOC(=O)N2CC(C(=O)N[C@@H](Cc3c[nH]cn3)C(=O)N[C@H](C(=O)N[C@@H](CCCNC(=N)N)C(=O)N[C@@H](CCCNC(=N)N)C(=O)N[C@H](C(=O)N[C@@H](Cc3c[nH]c4ccccc34)C(=O)N[C@@H](CCCNC(=N)N)C(N)=O)C(C)C)C(C)C)(C2)NC(=O)[C@H](CC(=O)O)NC(=O)[C@H](CC(C)C)NC1=O` (single isomer, unassigned) [FP0731c, Ac-P-Q-R4-I-L-D-MA-H-V-R-R-V-W-R-NH2]: the negative logarithm of the EC50 (pEC50) is 5.30 to 6.30. As for `CC[C@H](C)[C@@H]1NC(=O)[C@](C)(NC(=O)[C@H](CCC(N)=O)NC(=O)[C@@H]2CCCN2C(C)=O)CCCC=CCOC(=O)N2CC(C(=O)N[C@@H](Cc3c[nH]cn3)C(=O)N[C@H](C(=O)N[C@@H](CCCNC(=N)N)C(=O)N[C@@H](CCCNC(=N)N)C(=O)N[C@H](C(=O)N[C@@H](Cc3c[nH]c4ccccc34)C(=O)N[C@@H](CCCNC(=N)N)C(N)=O)C(C)C)C(C)C)(C2)NC(=O)[C@H](CC(=O)O)NC(=O)[C@H](CC(C)C)NC1=O` (single isomer, unassigned) [FP0733c, Ac-P-Q-R5-I-L-D-MA-H-V-R-R-V-W-R-NH2], the figure is 5.30 to 6.30; as for `CC[C@H](C)[C@@H]1NC(=O)[C@@](C)(NC(=O)[C@H](CCC(N)=O)NC(=O)[C@@H]2CCCN2C(C)=O)CCCC=CCN2CC(C(=O)N[C@@H](Cc3c[nH]cn3)C(=O)N[C@H](C(=O)N[C@@H](CCCNC(=N)N)C(=O)N[C@@H](CCCNC(=N)N)C(=O)N[C@H](C(=O)N[C@@H](Cc3c[nH]c4ccccc34)C(=O)N[C@@H](CCCNC(=N)N)C(N)=O)C(C)C)C(C)C)(C2)NC(=O)[C@H](CC(=O)O)NC(=O)[C@H](CC(C)C)NC1=O` (single isomer, unassigned) [FP0734a, Ac-P-Q-S5-I-L-D-MA-H-V-R-R-V-W-R-NH2], less than 5.30; as for `CC[C@H](C)[C@@H]1NC(=O)[C@@](C)(NC(=O)[C@H](CCC(N)=O)NC(=O)[C@@H]2CCCN2C(C)=O)CCCC=CCOC(=O)N2CC(C(=O)N[C@@H](Cc3c[nH]cn3)C(=O)N[C@H](C(=O)N[C@@H](CCCNC(=N)N)C(=O)N[C@@H](CCCNC(=N)N)C(=O)N[C@H](C(=O)N[C@@H](Cc3c[nH]c4ccccc34)C(=O)N[C@@H](CCCNC(=N)N)C(N)=O)C(C)C)C(C)C)(C2)NC(=O)[C@H](CC(=O)O)NC(=O)[C@H](CC(C)C)NC1=O` (single isomer, unassigned) [FP0734c, Ac-P-Q-S5-I-L-D-MA-H-V-R-R-V-W-R-NH2], less than 5.30. In the case of `CC[C@H](C)[C@@H]1NC(=O)[C@](C)(NC(=O)[C@H](CCC(N)=O)NC(=O)[C@@H]2CCCN2C(C)=O)CCCCC=CCN2CC(C(=O)N[C@@H](Cc3c[nH]cn3)C(=O)N[C@H](C(=O)N[C@@H](CCCNC(=N)N)C(=O)N[C@@H](CCCNC(=N)N)C(=O)N[C@H](C(=O)N[C@@H](Cc3c[nH]c4ccccc34)C(=O)N[C@@H](CCCNC(=N)N)C(N)=O)C(C)C)C(C)C)(C2)NC(=O)[C@H](CC(=O)O)NC(=O)[C@H](CC(C)C)NC1=O` (single isomer, unassigned) [FP0735a, Ac-P-Q-R6-I-L-D-MA-H-V-R-R-V-W-R-NH2], the pEC50 is 5.30 to 6.30. Consider `CC[C@H](C)[C@@H]1NC(=O)[C@](C)(NC(=O)[C@H](CCC(N)=O)NC(=O)[C@@H]2CCCN2C(C)=O)CCCCC=CCOC(=O)N2CC(C(=O)N[C@@H](Cc3c[nH]cn3)C(=O)N[C@H](C(=O)N[C@@H](CCCNC(=N)N)C(=O)N[C@@H](CCCNC(=N)N)C(=O)N[C@H](C(=O)N[C@@H](Cc3c[nH]c4ccccc34)C(=O)N[C@@H](CCCNC(=N)N)C(N)=O)C(C)C)C(C)C)(C2)NC(=O)[C@H](CC(=O)O)NC(=O)[C@H](CC(C)C)NC1=O` (single isomer, unassigned) [FP0735c, Ac-P-Q-R6-I-L-D-MA-H-V-R-R-V-W-R-NH2], for which the negative-log EC50 (pEC50) was 5.30 to 6.30. With `CC[C@H](C)[C@@H]1NC(=O)[C@@](C)(NC(=O)[C@H](CCC(N)=O)NC(=O)[C@@H]2CCCN2C(C)=O)CCCCC=CCN2CC(C(=O)N[C@@H](Cc3c[nH]cn3)C(=O)N[C@H](C(=O)N[C@@H](CCCNC(=N)N)C(=O)N[C@@H](CCCNC(=N)N)C(=O)N[C@H](C(=O)N[C@@H](Cc3c[nH]c4ccccc34)C(=O)N[C@@H](CCCNC(=N)N)C(N)=O)C(C)C)C(C)C)(C2)NC(=O)[C@H](CC(=O)O)NC(=O)[C@H](CC(C)C)NC1=O` (single isomer, unassigned) [FP0736a, Ac-P-Q-S6-I-L-D-MA-H-V-R-R-V-W-R-NH2], the pEC50 is 6.30 to 7.00. As for `CC[C@H](C)[C@@H]1NC(=O)[C@@](C)(NC(=O)[C@H](CCC(N)=O)NC(=O)[C@@H]2CCCN2C(C)=O)CCCCC=CCOC(=O)N2CC(C(=O)N[C@@H](Cc3c[nH]cn3)C(=O)N[C@H](C(=O)N[C@@H](CCCNC(=N)N)C(=O)N[C@@H](CCCNC(=N)N)C(=O)N[C@H](C(=O)N[C@@H](Cc3c[nH]c4ccccc34)C(=O)N[C@@H](CCCNC(=N)N)C(N)=O)C(C)C)C(C)C)(C2)NC(=O)[C@H](CC(=O)O)NC(=O)[C@H](CC(C)C)NC1=O` (single isomer, unassigned) [FP0736c, Ac-P-Q-S6-I-L-D-MA-H-V-R-R-V-W-R-NH2], the figure is 5.30 to 6.30. For `CC[C@H](C)[C@@H]1NC(=O)[C@@](C)(NC(=O)[C@H](CCC(N)=O)NC(=O)[C@@H]2CCCN2C(C)=O)CCCCCC=CCOC(=O)N2CC(C(=O)N[C@@H](Cc3c[nH]cn3)C(=O)N[C@H](C(=O)N[C@@H](CCCNC(=N)N)C(=O)N[C@@H](CCCNC(=N)N)C(=O)N[C@H](C(=O)N[C@@H](Cc3c[nH]c4ccccc34)C(=O)N[C@@H](CCCNC(=N)N)C(N)=O)C(C)C)C(C)C)(C2)NC(=O)[C@H](CC(=O)O)NC(=O)[C@H](CC(C)C)NC1=O` (single isomer, unassigned) [FP0738c, Ac-P-Q-S7-I-L-D-MA-H-V-R-R-V-W-R-NH2], the negative logarithm of the EC50 (pEC50) was 5.30 to 6.30. With `CC[C@H](C)[C@@H]1NC(=O)[C@@]2(NC(=O)[C@H](CCC(N)=O)NC(=O)[C@@H]3CCCN3C(C)=O)CCN(CC=CCCC[C@](C)(C(=O)N[C@@H](Cc3c[nH]cn3)C(=O)N[C@H](C(=O)N[C@@H](CCCNC(=N)N)C(=O)N[C@@H](CCCNC(=N)N)C(=O)N[C@H](C(=O)N[C@@H](Cc3c[nH]c4ccccc34)C(=O)N[C@@H](CCCNC(=N)N)C(N)=O)C(C)C)C(C)C)NC(=O)[C@H](CC(=O)O)NC(=O)[C@H](CC(C)C)NC1=O)C2` (single isomer, unassigned) [FP0743a, Ac-P-Q-MC-I-L-D-R5-H-V-R-R-V-W-R-NH2] the figure was less than 5.30. With `CC[C@H](C)[C@@H]1NC(=O)[C@@]2(NC(=O)[C@H](CCC(N)=O)NC(=O)[C@@H]3CCCN3C(C)=O)CCN(C2)C(=O)OCC=CCCC[C@](C)(C(=O)N[C@@H](Cc2c[nH]cn2)C(=O)N[C@H](C(=O)N[C@@H](CCCNC(=N)N)C(=O)N[C@@H](CCCNC(=N)N)C(=O)N[C@H](C(=O)N[C@@H](Cc2c[nH]c3ccccc23)C(=O)N[C@@H](CCCNC(=N)N)C(N)=O)C(C)C)C(C)C)NC(=O)[C@H](CC(=O)O)NC(=O)[C@H](CC(C)C)NC1=O` (single isomer, unassigned) [FP0743c, Ac-P-Q-MC-I-L-D-R5-H-V-R-R-V-W-R-NH2] the figure was 5.30 to 6.30; with `CC[C@H](C)[C@@H]1NC(=O)[C@@]2(NC(=O)[C@H](CCC(N)=O)NC(=O)[C@@H]3CCCN3C(C)=O)CCN(C2)C(=O)OCC=CCCCC[C@](C)(C(=O)N[C@@H](Cc2c[nH]cn2)C(=O)N[C@H](C(=O)N[C@@H](CCCNC(=N)N)C(=O)N[C@@H](CCCNC(=N)N)C(=O)N[C@H](C(=O)N[C@@H](Cc2c[nH]c3ccccc23)C(=O)N[C@@H](CCCNC(=N)N)C(N)=O)C(C)C)C(C)C)NC(=O)[C@H](CC(=O)O)NC(=O)[C@H](CC(C)C)NC1=O` (single isomer, unassigned) [FP0745c, Ac-P-Q-MC-I-L-D-R6-H-V-R-R-V-W-R-NH2], 6.30 to 7.00; with `CC[C@H](C)[C@@H]1NC(=O)[C@]2(NC(=O)[C@H](CCC(N)=O)NC(=O)[C@@H]3CCCN3C(C)=O)CCN(CC=CCCC[C@@](C)(C(=O)N[C@@H](Cc3c[nH]cn3)C(=O)N[C@H](C(=O)N[C@@H](CCCNC(=N)N)C(=O)N[C@@H](CCCNC(=N)N)C(=O)N[C@H](C(=O)N[C@@H](Cc3c[nH]c4ccccc34)C(=O)N[C@@H](CCCNC(=N)N)C(N)=O)C(C)C)C(C)C)NC(=O)[C@H](CC(=O)O)NC(=O)[C@H](CC(C)C)NC1=O)C2` (single isomer, unassigned) [FP0751a, Ac-P-Q-MB-I-L-D-S5-H-V-R-R-V-W-R-NH2], less than 5.30.
